{"source": "patent US12233129B2", "about": "“Methods and compositions for the treatment of cancer” (priority 2019, dated 2025)", "key": {"p53": {"system": "p53", "test": "Western blot of p53 in cytoplasmic and nuclear fractions of HCT-116 cells", "format": "cell-based, human", "details": "VTD 10 and 30 μM", "source_text": "We next performed a clonogenic survival assay (S4E) to determine colony formation in cancer cells in the presence and absence of VTD. […] At the same time, we measured the mot-2, p53, and UBXN2A protein levels in all these cell lines. […] To verify whether VTD-induced cell death is mediated through the UBXN2A-mot-2-p53 axis, we looked at the expression of p53 in the cytoplasm and nucleus of HCT-116 cells following VTD treatment. […] Due to a high cell death in higher doses of VTD, we could not use WB analysis for reliable p53 and UBXN2A detection and quantification. Finally, we checked the effect of VTD on non-cancerous cell lines. […]\nNuclear and cytoplasmic fractions were prepared from the cells using NE-PER Nuclear and Cytoplasmic Extraction Reagents (Pierce, IL, USA) according to the manufacturer's instructions. Protein concentrations were determined by BCA assay followed by SDSPAGE and WB analysis with the appropriate antibodies (Supplementary Table S3).\nFIG. 17: Induction of apoptosis and in vitro cytotoxicity by VTD in a human cancer cell line with different statuses of p53 and mot-2. […] After incubation, dead cells were washed off, and the remaining attached cells were calculated by counting in five random fields using the Axiovert 200 M inverted microscope and AxioVision software (cell detachment assay). The % of cells attached was calculated as % of control cells. […]"}, "HCT-116": {"system": "HCT-116", "method": "(§1) Besides the cell viability assay, we decided to measure the apoptotic activity in the above combination therapy.\n(§2) Cells were treated with 5-FU (5-100 μM) and etoposide (1-50 μM) along with VTD (30 and 100 μM respectively) in two different set of experiments for 24 hours.\n(§3) An MTT (3[4, 5-dimethylthiazol-2-yl]-2, 5-diphenyltetrazolium bromide) assay was performed to measure the viability of cells. Briefly, cells were seeded at a density of 10×10^3 cells per well in phenol-red free growth media. After 24 hours, cells were treated with various concentrations of VTD±5-FU or etoposide. After incubation, an MTT dye was added to the cells for 2-4 hours. The absorbance of samples was measured at 630 nm using an EXL808 absorption spectrophotometer (Biotek, Winooski). The viability of cells was calculated as % of control. Cell detachment and clonogenic survival assays were conducted as previously described. Early apoptosis, caspase-3, cleaved PARP and Sytox Red (Life Technology, NY, USA) were measured by the Accuri C6 flow cytometer system (BD Pharmingen, MD, USA).[54]\n(§4) (A-H) (A-C) HCT-116 and (D-F) LoVo were treated with VTD (10-300 μM) for 24, 48, and 72 hours. A suboptimal dose of Etoposide (ETO) ([…]) was added to cells for the last 24 hours only. The viability of cells was determined as % of control (untreated cells) using an MTT assay. […] (G-H) HCT-116 (G) and LoVo (H) cells were treated with VTD (10-200 μM) and a suboptimal dose of ETO (5 μM) for 24 hours. Cells were then stained with Annexin V apoptotic marker. […] (I-L) HCT-116 and LoVo cells were treated with different doses of 5-FU (5-100 μM, I-J) and ETO (1-50 μM, K-L) along with VTD (30 μM and 100 μM respectively) for 24 hours."}, "LoVo": {"system": "LoVo", "method": "as §1, §2, §3, §4"}, "[1]": {"details": "5-FU 5-100 μM along with VTD 100 μM, 24 hours"}, "[2]": {"details": "VTD 10-300 μM 24, 48, 72 hours plus suboptimal etoposide 5 μM for the last 24 hours"}, "[3]": {"details": "etoposide 1-50 μM along with VTD 30 μM, 24 hours"}, "[4]": {"details": "higher concentrations of VTD with etoposide 5 μM"}, "[5]": {"details": "low doses of VTD with etoposide, antagonistic"}}, "note": "“Also recorded” adds a separate entry of the source. Read-outs that look alike come from different tables or passages of the source.", "data": [{"smiles": "COc1ccc(C(=O)O[C@H]2CC[C@@]3(C)[C@@H]4CC[C@H]5[C@]6(O)C[C@H](O)[C@@]7(O)[C@@H](CN8C[C@@H](C)CC[C@H]8[C@@]7(C)O)[C@]6(O)C[C@@]53O[C@]24O)cc1OC", "note": "[VTD, Veratridine]", "values": [{"measurement": "p53 levels in cytoplasm and nucleus (WB)", "setting": "p53", "result": "increases WT-p53 levels both in the cytoplasm and nucleus; also recorded: increases p53 in both cytoplasm and nucleus compartments in a dose-dependent manner"}, {"measurement": "combination index (CI)", "setting": "HCT-116; 5-FU 75 μM combined with 100 μM VTD", "result": 0.165}, {"measurement": "combination index (CI)", "setting": "HCT-116; 5-FU 100 μM combined with 100 μM VTD", "result": 0.109}, {"measurement": "cell viability (MTT), 5-FU effect enhanced by VTD", "setting": "HCT-116; [1]", "result": "significantly enhanced the 5-FU and etoposide effects on cell viability"}, {"measurement": "combination index (CI)", "setting": "HCT-116; VTD 30 μM with etoposide 5 μM", "result": 0.516}, {"measurement": "cell viability (MTT), combination", "setting": "HCT-116; [2]", "result": "significantly potentiates the cytotoxic effect of VTD"}, {"measurement": "cell viability (MTT), etoposide effect enhanced by VTD", "setting": "HCT-116; [3]", "result": "significantly enhanced the 5-FU and etoposide effects on cell viability"}, {"measurement": "combination index (CI)", "setting": "HCT-116; [4]", "result": "≤ 0.4"}, {"measurement": "combination index (CI)", "setting": "HCT-116; [5]", "result": "> 1"}, {"measurement": "combination index (CI)", "setting": "LoVo; 5-FU 5 μM with 100 μM VTD", "result": 0.32}, {"measurement": "cell viability (MTT), 5-FU effect enhanced by VTD", "setting": "LoVo; [1]", "result": "significantly enhanced the 5-FU and etoposide effects on cell viability"}, {"measurement": "cell viability (MTT), combination", "setting": "LoVo; [2]", "result": "significantly potentiates the cytotoxic effect of VTD"}, {"measurement": "combination index (CI)", "setting": "LoVo; etoposide 1 μM with 30 μM VTD", "result": 0.275}, {"measurement": "VTD concentration at which VTD and etoposide start to act synergistically", "setting": "LoVo; etoposide 5 μM", "result": 100, "unit": "µM"}, {"measurement": "cell viability (MTT), etoposide effect enhanced by VTD", "setting": "LoVo; [3]", "result": "significantly enhanced the 5-FU and etoposide effects on cell viability"}, {"measurement": "combination index (CI)", "setting": "LoVo; [4]", "result": "≤ 0.4"}, {"measurement": "combination index (CI)", "setting": "LoVo; [5]", "result": "> 1"}]}]}
